Test results from article PMC11270681, “Synthesis and Systematic Investigation of Lepidiline A and Its Gold(I), Silver(I), and Copper(I) Complexes Using In Vitro Cancer Models and Multipotent Stem Cells” (ACS Omega, 2024).
Where “and” joins values, the source holds several entries; their conditions need not be identical. Equal entries are not always repeated.

Key:
[1] = tested on: Mes-Sa; test: Cytotoxicity, uterine sarcoma parental line; assay type: cell-based; conditions: fluorescent protein intensity after 144 h
Procedure: (§1) OVCAR-3 (OVC-3) and OVCAR-8 (OVC-8) ovarian serous adenocarcinomas, IGROV-1 ovarian endometrioid adenocarcinoma, OVCAR-5 (OVC-5) upper gastrointestinal carcinoma, MDA-MB-231 breast adenocarcinoma, and MCF-7 and T-47D invasive breast carcinomas were purchased from the Developmental Therapeutic Program of the National Cancer Institute (NIH, USA) and were cultured in an RPMI medium (Thermo Fisher). Mes-Sa and Mes-Sa/Dx5 uterine sarcoma cell lines were purchased from American Type Culture Collection (ATCC) and were kept in DMEM (Thermo Fisher). Mes-Sa B1 was transfected with the human MDR1 gene, and Mes-Sa mCherry, Mes-Sa B1 mOrange, and Mes-Sa/Dx5 eGFP were engineered to stably express the respective fluorescent proteins previously.[51] Culture media for cancer cells were supplemented with 10% fetal bovine serum, 2 mM L-glutamine, and 100 units/mL penicillin and 100 μg/mL streptomycin (Thermo Fisher). The adipose tissue and bone marrow-derived mesenchymal stem cells (AD-MSC and BM-MSC) were described previously[37] and were kept in DMEM-F12 (Gibco) supplemented with 10% fetal bovine serum, L-glutamine (Thermo Fisher), 0.1% gentamicin (Gibco, 50 mg/mL), and 16 ng/mL fibroblast growth factor 2 (Peprotech). Cells were kept at 37 °C under 5% CO2 and were negative for mycoplasma infection.
(§2) Cytotoxicities of the nonfluorescent cancer cells were assessed with a PrestoBlue cell viability reagent (Thermo Fisher). Briefly, 2500 cells/well were seeded on 384-well plates; then, the next-day drugs were added. After 72 h of incubation, PrestoBlue was added in a 10% final concentration, and after an hour of additional incubation, plates were measured with a PerkinElmer EnSpire plate reader at 555 nm/585 nm excitation/emission wavelengths. Stem cells were seeded on 96-well plates at a density of 5000 cells/well, and the following day, drugs were added for 96 h of incubation; then, viability was assessed with 10% PrestoBlue diluted in PBS. Fluorescent cancer cells were admixed before seeding on 384-well plates at an 800 cells/well density each, thus altogether 2400 cells/well. Drugs were added the following day, and the intensity of the fluorescent proteins was measured after 144 h of incubation at the respective fluorescent channels (excitation/emission, eGFP: 485 nm/510 nm; mCherry: 585 nm/610 nm; mOrange: 545 nm/567 nm). pIC50 values were calculated by a custom program written by Judit Sessler in C#. IC50 values and standard deviation were calculated from average pIC50 values from at least 3 independent measurements.

[2] = tested on: Mes-Sa B1; test: Cytotoxicity, MDR1-transfected uterine sarcoma line; assay type: cell-based; conditions: Mes-Sa B1 (MDR1 transfected, ABCB1 expressing), fluorescent protein intensity after 144 h
Procedure: as §1, §2

[3] = tested on: Mes-Sa/Dx5; test: Cytotoxicity, doxorubicin-selected MDR uterine sarcoma line; assay type: cell-based; conditions: Mes-Sa/Dx5 (doxorubicin selected, ABCB1 expressing), fluorescent protein intensity after 144 h
Procedure: as §1, §2

[4] = tested on: im. BM-MSC; test: Cytotoxicity (PrestoBlue), immortalized bone marrow MSC; assay type: cell-based; conditions: 96 h incubation
Procedure: as §1, §2

[5] = tested on: MDA-MB-231; test: Cytotoxicity (PrestoBlue), breast cancer line; assay type: cell-based; conditions: MDA-MB-231, 72 h incubation
Procedure: as §1, §2

[6] = tested on: cancer lines; test: Cytotoxicity, range over cancer lines; assay type: cell-based; conditions: read-out: IC50 range over non-MDR cancer cells
Procedure: as §1
(§3) Cytotoxicities of the nonfluorescent cancer cells were assessed with a PrestoBlue cell viability reagent (Thermo Fisher). Briefly, 2500 cells/well were seeded on 384-well plates; then, the next-day drugs were added. After 72 h of incubation, PrestoBlue was added in a 10% final concentration, and after an hour of additional incubation, plates were measured with a PerkinElmer EnSpire plate reader at 555 nm/585 nm excitation/emission wavelengths. Stem cells were seeded on 96-well plates at a density of 5000 cells/well, and the following day, drugs were added for 96 h of incubation; then, viability was assessed with 10% PrestoBlue diluted in PBS. […] IC50 values and standard deviation were calculated from average pIC50 values from at least 3 independent measurements.

[7] = tested on: BM-MSC; test: Cytotoxicity (PrestoBlue), bone marrow-derived mesenchymal stem cells; assay type: cell-based; conditions: 96 h incubation
Procedure: as §1, §2

[8] = tested on: MSCs; test: Cytotoxicity, range over MSCs; assay type: cell-based; conditions: BMMSC; AD-MSC, BM-MSC, immortalized BM-MSC
Procedure: as §1, §3

[9] = tested on: OVC-8; test: Cytotoxicity (PrestoBlue), ovarian cancer line; assay type: cell-based; conditions: OVC-8, 72 h incubation
Procedure: as §1, §2

[10] = tested on: AD-MSC; test: Cytotoxicity (PrestoBlue), adipose-derived mesenchymal stem cells; assay type: cell-based; conditions: 96 h incubation
Procedure: as §1, §2

[11] = tested on: OVC-5; test: Cytotoxicity (PrestoBlue), upper gastrointestinal cancer line; assay type: cell-based; conditions: OVC-5, 72 h incubation, PrestoBlue
Procedure: as §1, §2

[12] = tested on: Mes-Sa; test: H2DCFDA intracellular ROS production assay; assay type: cell-based; conditions: 50 μM, 4 h incubation, vs medium
Procedure: (§4) To assess intracellular ROS production, we used a H2DCFDA cellular ROS assay kit (ab113851, Abcam) according to the manufacturer’s instructions. Briefly, 20,000 cells were seeded on 96-well plates. On the following day, cells were washed, and H2DCFDA solution, prepared by avoiding direct light, was added for 45 min. Next, cells were washed, and 50 μM samples of test compounds were aspirated on the cells in a complete and phenol red-free medium (FluoroBrite, Thermo Fisher). At each hour, fluorescence of 2′,7′-dichlorofluorescein (DCF) was measured at 484 nm/535 nm excitation/emission wavelengths. Values were normalized to 0 h measurements. Values indicate at least 3 independent measurements.

[13] = tested on: T-47D; test: H2DCFDA intracellular ROS production assay; assay type: cell-based; conditions: 50 μM, 4 h incubation, vs medium
Procedure: as §4

[14] = tested on: MCF-7; test: H2DCFDA intracellular ROS production assay; assay type: cell-based; conditions: MCF-7, 50 μM, 4 h incubation, vs medium
Procedure: as §4

[15] = tested on: T-47D; test: Cytotoxicity (PrestoBlue), breast cancer line; assay type: cell-based; conditions: 72 h incubation
Procedure: as §1, §2

[16] = tested on: MCF-7; test: Cytotoxicity (PrestoBlue), breast cancer line; assay type: cell-based; conditions: MCF-7, 72 h incubation
Procedure: as §1, §2

[17] = tested on: Bone marrow MSCs (BM-MSC); test: Cytotoxicity, range over bone marrow MSCs; assay type: cell-based; conditions: BM-MSC and immortalized BM-MSC
Procedure: as §1, §2

[18] = tested on: OVC-3; test: Cytotoxicity (PrestoBlue), ovarian cancer line; assay type: cell-based; conditions: OVC-3, 72 h incubation
Procedure: as §1, §2

[19] = tested on: IGROV-1; test: Cytotoxicity (PrestoBlue), ovarian cancer line; assay type: cell-based; conditions: IGROV-1, 72 h incubation
Procedure: as §1, §2

[20] = Stability in serum-free culture medium by HPLC-UV; assay type: physicochemical; conditions: for AUC (HPLC-UV), single measurements 1-5 / AUC (HPLC-UV), average: serum-free culture medium
Procedure: Stability of the metal complexes in solution was measured in serum-free culture medium. The compounds were dissolved in DMSO right before the experiment. Solutions of Cu-LA and Ag-LA contained 1% final volume of DMSO, while Au-LA contained 30% DMSO. Samples were taken right after dilution, and after 1 h, 2 h, 4 h, 8 h, 16 h, 32 and 48 h, and measured by HPLC-UV.

[21] = Homo sapiens, MES-SA/Dx5, 144 h

Molecule `COc1cc([C@@H]2c3cc4c(cc3[C@@H](O[C@@H]3O[C@@H]5CO[C@@H](C)O[C@H]5[C@H](O)[C@H]3O)[C@H]3COC(=O)[C@H]23)OCO4)cc(OC)c1O` [Etoposide, etoposide, reference compound] has an IC50 ([1]; Homo sapiens) of 0.26 µM, an IC50 ([2]; Homo sapiens) of 1.17 µM and an IC50 [3, 21] of 1.7 µM.

In the case of `COc1cccc2c1C(=O)c1c(O)c3c(c(O)c1C2=O)C[C@@](O)(C(=O)CO)C[C@@H]3O[C@H]1C[C@H](N)[C@H](O)[C@H](C)O1` [Doxorubicin, doxorubicin, reference compound], the IC50 ([1]; Homo sapiens) is reported as 0.038 µM, the IC50 ([4]; BMMSC) is reported as 0.067 µM and the IC50 ([5]; Homo sapiens) is reported as 0.22 µM. For the same molecule, the IC50 [3, 21] was 2.41 µM, the IC50 [6] was 0.034 to 0.22 µM and the IC50 ([7]; BMMSC) was 0.1 µM. The IC50 [8] was 0.067 to 0.13 µM, the IC50 [9] was 0.19 µM and the IC50 ([10]; Mesenchymal stem cells, 96 h) was 0.13 µM.

In the case of `Cc1c(C)n(Cc2ccccc2)[c](=[Cu][Cl])n1Cc1ccccc1` [Cu-LA, Chloro-(1,3-dibenzyl-4,5-dimethyl-imidazol-2-ylidene)copper], the IC50 [1] is reported as 18.5 µM, the IC50 [11] is reported as 104 µM and the “Higher intracellular ROS formation” value [12] is reported as 2–3 fold. For the same molecule, the “Higher intracellular ROS formation” value [13] was 2–3 fold, the “Higher intracellular ROS formation” value [14] was 2–3 fold and the IC50 [4] was 75.4 µM. The IC50 [2] was > 100 µM, the IC50 [5] was 62.5 µM and the IC50 [15] was 24.8 µM. The IC50 [16] was 41.3 µM, the IC50 [17] was 48 to 98 µM and the IC50 [3] was 76.6 µM. The IC50 [7] was 98.3 µM, the IC50 [18] was 58.5 µM and the IC50 [19] was 72.9 µM. The IC50 [9] was 67.6 µM, the “AUC (HPLC-UV), single measurements 1-5” value ([20]; 0 h) was 1030 and 1011 and 1021 and 1023 and 1047 and the “AUC (HPLC-UV), average” value ([20]; 0 h, Cu-LA, Ag-LA 1% DMSO, Au-LA 30% DMSO) was 1026. For the same molecule, the “AUC (HPLC-UV), average” value ([20]; 1 h) was 1019, the “AUC (HPLC-UV), single measurements 1-5” value ([20]; 1 h) was 1022 and 1016 and 1021 and 1017 and the “AUC (HPLC-UV), average” value ([20]; 2 h) was 1022. For the same molecule, the “AUC (HPLC-UV), single measurements 1-5” value ([20]; 2 h) was 1021 and 1020 and 1022 and 1023, the “AUC (HPLC-UV), average” value ([20]; 4 h) was 1042 and the “AUC (HPLC-UV), single measurements 1-5” value ([20]; 4 h) was 1040 and 1041 and 1043 and 1044. For the same molecule, the “AUC (HPLC-UV), average” value ([20]; 8 h) was 1044, the “AUC (HPLC-UV), single measurements 1-5” value ([20]; 8 h) was 1045 and 1042 and 1044 and 1046 and the “AUC (HPLC-UV), average” value ([20]; 16 h) was 1042. The “AUC (HPLC-UV), single measurements 1-5” value ([20]; 16 h) was 1039 and 1042 and 1046, the “AUC (HPLC-UV), average” value ([20]; 32 h) was 1038 and the “AUC (HPLC-UV), single measurements 1-5” value ([20]; 32 h) was 1030 and 1041 and 1038 and 1042 and 1039. The “AUC (HPLC-UV), average” value ([20]; 48 h) was 1039, the “AUC (HPLC-UV), single measurements 1-5” value ([20]; 48 h) was 1038 and 1039 and 1040 and the “Stability in serum-free culture medium” value ([20]; HPLC-UV, observed 48 h) was “stable”. It also gave an IC50 [10] of 23.7 µM.
